# Test results from patent publication US5858397A, “Liposomal formulations of mitoxantrone” (priority 1995, dated 1999).
# Where a name gives a salt, the structure may show the parent alone.
# What was measured:
# [1] = Change in body weight during efficacy studies
# Procedure: (§1) Injections were administered in a volume of 200 μL. In order to achieve this volume for the 20 mg/kg dose, the stock mixture was concentrated using Aquacide II. Survival times of the mice were then monitored over a sixty day time course. Increase in life span (ILS %) was calculated as follows: [formula] Maximum tolerated dose was determined by monitoring the weight loss of the mice over a two week period. If the mice lost greater than 30% of the original weight then the mice are terminated.
# [2] = tested on: tumor models and human carcinomas; details: cited from earlier work
# [3] = Toxic dose range finding (maximum tolerated dose) in tumor-free mice; details: mouse, in vivo
# Procedure: as §1
# L1210 = L1210 anti-tumor activity (survival); format: in vivo, BDF1 mice; details: for 60 Day Survival / Mean Survival: single; for % ILS (Increase in Life Span): vs untreated control
# Procedure: as §1
# The antitumor effects of free mitoxantrone and liposomal mitoxantrone were compared using the L1210 tumor model. L1210 is a murine lymphocytic leukemia. […] This provides identical tumor models for the two organs.
# in vivo = details: mouse, iv, 10 mg/kg
# Procedure: At 1, 4, 24, and 48 hours, the animals were terminated by CO2 asphyxiation and whole blood was collected via cardiac puncture. The collected blood was immediately placed into EDTA coated tubes (MICROTAINERS® from Becton Dickinson). Subsequently, plasma was prepared by centrifuging the EDTA treated whole blood at 500×g for 10 min. Lipid and drug was assayed via [^3 H]-Cholesteryl hexadecyl ether and I^14 C]-mitoxantrone tracer using a scintillation counter as described above.
# An estimation of the amount of mitoxantrone retained in the liposomes that are in the circulation can be made by determining the ratio of mitoxantrone-to-lipid at the indicated time points. This estimation assumes that the level of free drug in the plasma of animals given liposomal mitoxantrone will be negligible.
SMILES,"body weight loss at nadir ([1]; L1210-bearing mice, free 10 mg/kg, liposomal 20 mg/kg, day 12 to 13) [%]","MTD ([1]; mouse, in vivo) [mg/kg]",short and long term toxicity compared with doxorubicin [2],toxic side effect [2],MTD [3] [mg/kg],"maximum therapeutic dose (L1210; 10^4 L1210 cells i.v., treated 24 h later) [mg/kg]",60 Day Survival (L1210; drug dose 5 mg/kg),Mean Survival (L1210; drug dose 5 mg/kg) [days],% ILS (Increase in Life Span) (L1210; drug dose 5 mg/kg) [%],60 Day Survival (L1210; drug dose 10 mg/kg),Mean Survival (L1210; drug dose 10 mg/kg) [days],% ILS (Increase in Life Span) (L1210; drug dose 10 mg/kg) [%],60 Day Survival (L1210; drug dose 20 mg/kg),Mean Survival (L1210; drug dose 20 mg/kg) [days],% ILS (Increase in Life Span) (L1210; drug dose 20 mg/kg) [%],maximum % increase in life span (L1210; maximum over the doses tested) [%],AUC (in vivo) [ng·h/mL]
"O=C1c2c(O)ccc(O)c2C(=O)c2c(NCCNCCO)ccc(NCCNCCO)c21 [Free Mitoxantrone, mitoxantrone hydrochloride]",~30,10,lower short and long term toxicity than doxorubicin,myelosuppression,10,10,0/5,13.6,58,0/5,16.6,93,0/5,12.6,47,93,11.4
COc1cccc2c1C(=O)c1c(O)c3c(c(O)c1C2=O)C[C@@](O)(C(=O)CO)C[C@@H]3O[C@H]1C[C@H](N)[C@H](O)[C@H](C)O1 [doxorubicin],,,,dose limiting cardiotoxicity,,,,,,,,,,,,,
